From patent US20240116985A1, “STAPLED PEPTIDES AND METHODS THEREOF” (priority 2020, published 2024)
pIC50: −log10 of the molar value. ≈ marks a conversion by molar mass, not a printed value. Where two headings read alike, the source gives them in different places.

Columns and labels:
[1] = molecular target: T1, beta-catenin/TCF4 engagement (Homo sapiens, UniProt P35222); assay: Nano-BRET target engagement assay (B-cat-Halo & TCF4-Luc in HEK293 cells); format: cell-based; conditions: for inhibition at 10 µM: HEK293, 10 uM, read-out: NanoBRET % inh @ 10 uM; for pIC50: read-out: NanoBRET Abs IC50
T1 construct: expressed in transfected cells; host or cells: HEK293
T1 sequence (P35222 1-781): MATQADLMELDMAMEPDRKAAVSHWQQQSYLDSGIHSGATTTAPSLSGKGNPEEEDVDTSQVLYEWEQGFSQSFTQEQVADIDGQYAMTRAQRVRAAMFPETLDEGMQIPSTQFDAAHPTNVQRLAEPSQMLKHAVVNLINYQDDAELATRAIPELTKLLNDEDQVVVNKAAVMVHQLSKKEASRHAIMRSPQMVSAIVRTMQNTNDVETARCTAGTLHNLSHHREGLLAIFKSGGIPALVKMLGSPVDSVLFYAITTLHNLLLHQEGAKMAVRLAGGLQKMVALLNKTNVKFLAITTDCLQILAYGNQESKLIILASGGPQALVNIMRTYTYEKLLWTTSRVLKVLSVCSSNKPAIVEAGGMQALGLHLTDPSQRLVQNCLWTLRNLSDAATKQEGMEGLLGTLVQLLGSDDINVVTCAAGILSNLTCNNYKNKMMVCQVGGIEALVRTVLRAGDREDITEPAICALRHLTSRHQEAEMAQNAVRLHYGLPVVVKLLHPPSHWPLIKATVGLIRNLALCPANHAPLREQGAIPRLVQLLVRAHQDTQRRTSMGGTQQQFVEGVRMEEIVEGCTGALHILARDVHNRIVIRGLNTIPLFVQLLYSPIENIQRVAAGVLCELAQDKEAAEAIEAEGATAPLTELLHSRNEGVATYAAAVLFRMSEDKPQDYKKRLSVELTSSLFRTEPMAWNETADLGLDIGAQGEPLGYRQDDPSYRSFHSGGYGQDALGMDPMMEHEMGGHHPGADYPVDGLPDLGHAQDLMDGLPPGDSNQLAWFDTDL

[2] = molecular target: T2, full-length beta-Catenin (Uniprot ID P35222) (Homo sapiens, UniProt P35222); assay: Fluorescence polarization IC50 (beta-catenin / 5FAM-TCF4 10-53 competition); format: binding
T2 construct: 10 nM full-length beta-Catenin (Uniprot ID P35222)
T2 sequence (P35222 1-781): T1 sequence (P35222 1-781)

[3] = CHI Log D procedure; format: physicochemical; conditions: for chromatographic logD: pH 7.4, CHI Log D
[4] = Solubility in PBS; format: physicochemical
Summary of the method: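 The PBS solution was ultracentrifuged and the supernatant analyzed by HPLC. Its peak area was divided by that of a 50 μM peptide DMSO reference injection and multiplied by 50 uM to give solubility.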

| SMILES | inhibition at 10 µM [1] | pIC50 [1] | pIC50 ([2]; read-out: beta-Catenin FP IC50) | chromatographic logD [3] | Solubility [4] | pIC50 ([1]; absolute IC50) | pIC50 ([2]; fluorescence polarization, beta-catenin, read-out: FP EC50) | CHI Log D ([3]; pH 7.4) | Solubility ([4]; Solubility (uM)) |
| --- | --- | --- | --- | --- | --- | --- | --- | --- | --- |
| CC(=O)N1CCC[C@]12CC=CCCCC1(CCCC=CCCCOC(=O)N3CC[C@@](C(=O)N[C@@H](Cc4ccsc4)C(=O)N[C@@H](Cc4csc5ccccc45)C(=O)N[C@@H](CCC(N)=O)C(=O)N[C@@H](C)C(N)=O)(C3)NC(=O)[C@H](CC(N)=O)NC(=O)[C@H](Cc3ccccc3)NC(=O)[C@H](C)NC(=O)[C@H](C)NC(=O)[C@H](CC(=O)O)NC(=O)[C@H](CC(=O)O)NC1=O)NC(=O)[C@H](CC(C)(C)C)NC(=O)[C@H](CC(=O)O)NC2=O (stereo partly drawn) [I-819, Ac-PL3-Asp-Npg-B5-Asp-Asp-Ala-Ala-Phe-Asn-PyrS2-3Thi-BztA-Gln-Ala-NH2] | 37.8% | 5.12 | 8.30 | 2.03 | 50 µM (≈ 99.5 µg/mL) | – | – | – | – |
| CC(=O)N1CCC[C@]12CC=CCCCC1(CCCC=CCCCOC(=O)N3CC[C@@](C(=O)N[C@@H](Cc4ccccc4Cl)C(=O)N[C@@H](Cc4csc5ccccc45)C(=O)N[C@@H](CO)C(N)=O)(C3)NC(=O)[C@H](Cc3ccccc3)NC(=O)[C@H](Cc3ccccc3)NC(=O)[C@H](C)NC(=O)[C@H](C)NC(=O)[C@H](CN(CC(=O)O)CC(F)(F)F)NC(=O)[C@H](CC(=O)O)NC1=O)NC(=O)[C@H](CC(C)(C)C)NC(=O)[C@H](CC(=O)O)NC2=O (stereo partly drawn) [I-990, Ac-PL3-Asp-Npg-B5-Asp-TfeGA-Ala-Ala-Phe-Phe-PyrS2-2C1F-BztA-Ser-NH2] | – | – | 7.39 | 2.65 | 10 µM (≈ 20.5 µg/mL) | 5.06 | – | – | – |
| CC(=O)N1CCC[C@]12CC=CCCCC1(CCCC=CCCCCOC(=O)N3CC[C@@](C(=O)N[C@@H](Cc4ccsc4)C(=O)N[C@@H](Cc4csc5ccccc45)C(=O)N[C@@H](CCC(N)=O)C(=O)N[C@H](C)C(N)=O)(C3)NC(=O)[C@H](CC(N)=O)NC(=O)[C@H](Cc3ccccc3)NC(=O)[C@H](C)NC(=O)[C@H](C)NC(=O)[C@H](CC(=O)O)NC(=O)[C@H](CC(=O)O)NC1=O)NC(=O)[C@H](CC(C)(C)C)NC(=O)[C@H](CC(=O)O)NC2=O (stereo partly drawn) [I-831, Ac-PL3-Asp-Npg-B5-Asp-Asp-Ala-Ala-Phe-Asn-PyrS3-3Thi-BztA-Gln-dAla-NH2] | 32.4% | 4.59 | 7.96 | – | 50 µM (≈ 100 µg/mL) | – | 7.96 | 2.075 | – |
| CCCC(=O)NCCCC[C@@H]1NC(=O)[C@H](C)NC(=O)[C@H](CC(=O)O)NC(=O)[C@H](CC(=O)O)NC(=O)C2(CCCC=CCCCOC(=O)N3CC[C@@](C(=O)N[C@@H](Cc4ccsc4)C(=O)N[C@@H](Cc4csc5ccccc45)C(=O)N[C@@H](CCC(N)=O)C(N)=O)(C3)NC(=O)[C@H](CC(N)=O)NC(=O)[C@H](Cc3ccccc3)NC1=O)CCCC=CC[C@]1(CCCN1C(C)=O)C(=O)N[C@@H](CC(=O)O)C(=O)N[C@@H](CC(C)(C)C)C(=O)N2 (stereo partly drawn) [I-897, Ac-PL3-Asp-Npg-B5-Asp-Asp-Ala-[Bua]Lys-Phe-Asn-PyrS2-3Thi-BztA-Gln-NH2] | – | < 4.70 | 7.80 | 1.65 | – | – | – | – | 43 µM (≈ 88 µg/mL) |
| CC(=O)N1CCC[C@]12CC=CCCCC1(CCCC=CCCCOC(=O)N3CC[C@@](C(=O)N[C@@H](Cc4ccccc4)C(=O)N[C@@H](Cc4csc5ccccc45)C(=O)N[C@@H](CO)C(N)=O)(C3)NC(=O)[C@H](CO)NC(=O)[C@H](Cc3ccccc3)NC(=O)[C@H](C)NC(=O)[C@H](C)NC(=O)[C@H](CC(=O)O)NC(=O)[C@H](CC(=O)O)NC1=O)NC(=O)[C@H](CC1CCCCC1)NC(=O)[C@H](CC(=O)O)NC2=O (stereo partly drawn) [I-1100, Ac-PL3-Asp-Cha-B5-Asp-Asp-Ala-Ala-Phe-Ser-PyrS2-Phe-BztA-Ser-NH2] | – | 4.61 | 7.80 | 2.36 | – | – | – | – | 46 µM (≈ 86 µg/mL) |
| CC(=O)N1CCC[C@]12CC=CCCCC1(CCCC=CCCCOC(=O)N3CC[C@@](C(=O)N[C@@H](Cc4ccccc4Cl)C(=O)N[C@@H](Cc4csc5ccccc45)C(=O)N[C@@H](CCC(N)=O)C(N)=O)(C3)NC(=O)[C@H](CC(C)C)NC(=O)[C@H](Cc3ccccc3)NC(=O)[C@H](C)NC(=O)[C@H](C)NC(=O)[C@H](CC(=O)O)NC(=O)[C@H](CC(=O)O)NC1=O)NC(=O)[C@H](Cc1cccc3ccccc13)NC(=O)[C@H](CC(=O)O)NC2=O (stereo partly drawn) [I-1110, Ac-PL3-Asp-1NapA-B5-Asp-Asp-Ala-Ala-Phe-Leu-PyrS2-2C1F-BztA-Gln-NH2] | – | < 4.70 | 7.42 | 2.37 | 10 µM (≈ 20.2 µg/mL) | – | – | – | – |
